Test results reported in US9670223B2, “Compounds with super-aspirin effects” (SOLVOTRIN THERAPEUTICS LTD., priority 2011, dated 2017).
“Also recorded” adds a separate entry of the source. Like-named read-outs stand apart in the source and are kept apart here.

Key:
[1] = tested on: washed platelets (WP); assay: Collagen-induced platelet aggregation in washed platelets (light aggregometry); format: cell-based, human; parameters: IC50: unit of the concentration uncertain; settings: for IC50: inhibition of platelet aggregation in response to collagen (5 (unit uncertain)), washed platelets; for effect of eserine on inhibition of collagen-induced aggregation in WP: physostigmine (eserine) 10 μM
Procedure: PRP and WP (2.5×10^8 platelets ml^−1) were prepared from blood. Briefly 36 ml whole blood was collected into 4 ml of 3.15% sodium citrate; this was centrifuged at 250 ¥g for 20 min (with gentle acceleration and deceleration). At this point PRP, which had separated from white blood cells and red blood cells, was gently removed. When WP were required this PRP was centrifuged at 700 g for 10 min (with gentle acceleration and deceleration) in the presence of prostacyclin. The platelet-poor plasma (PPP) was removed and the platelet pellet was washed three times with Tyrode's buffer, before being re-suspended in Tyrode's buffer to a concentration of 2.5 ¥108 platelets/ml.
Platelet aggregation was measured by light aggregometry. […] Aggregation was initiated by the addition of agonists, and monitored by Aggro-Link software for at least 6 min.
To study the aggregatory potency of ADP, the concentration-response (0.3-10 μM) curves were generated. Collagen at different concentrations (2-5 μg/ml) was also used to induce platelet aggregation. Submaximal concentrations of agonists, i.e. the concentrations that gave approximately 95% of the maximal aggregation were used to study the effects of inhibitors of aggregation. Aspirin and aspirin prodrugs was incubated for various intervals prior to the addition of aggregating agents.
To study the involvement of plasma BuChE in the activation of ST0701, purified BuChE (3 U/ml) was incubated with WP for 5 min in the aggregometer with stirring at 900 r.p.m. before the addition of the test compounds ST0701 which was incubated with the WP for a further 10 min, prior to the addition of collagen (5 ug/ml).
Eserine (in DMSO, 10 μM, giving a final concentration≦0.25% DMSO, which pilot studies had determined not to affect platelet aggregation) was preincubated with PRP or WP for 5 min in the aggregometer with stirring at 900 r.p.m. before the addition of test compounds (ST0701-05), which were incubated in PRP or WP for a further 10 min prior to the addition of an agonist (10 μM ADP or 5 μg/ml Collagen) to induce platelet aggregation.
Phenylmethylsulphonylfluoride (PMSF) 20, 50 and 100 μM dissolved in EtOH (<0.2% EtOH, which pilot studies had determined not to affect platelet aggregation) was preincubated in WP in the aggregometer for 5 min with stirring at 900 r.p.m. before the addition of test compound ST0702 to the WP, which was further incubated for 10 min prior to the addition of collagen (2 μg/ml) to induce platelet aggregation.

[2] = Plasma pharmacokinetics of aspirin and metabolites after single oral gavage dose; format: in vivo, cynomolgus monkey; settings: cynomolgus monkey, plasma, read-out: modeled AUC of Aspirin
Procedure: The objectives of this study are to determine the comparative clinical efficacy as determined by TxB2 suppression with single oral gavage dose administration of Aspirin, ST0702 and ST0702 Micronised to the cynomolgus monkey. Aspirin pharmacokinetics were compared using Area Under the Curve (AUC) calculations.
The objectives of this study are to determine the comparative pharmacokinetics of ST0702 at 9.6 and 4.8 mg/Kg with single oral gavage dose administration to the cynomolgus monkey and to determine dose-response effects.
Although the half life of the Isosorbide 2 salicylate 5 nicotinate metabolite is very short in-vitro, we investigated the serum taken from Cynomologus Monkeys participating in Study 2B above. The comparative pharmacokinetics of Isosorbide 2 salicylate 5 nicotinate from Monkeys receiving a single oral gavage dose of micronized ST0702 at 9.6 and 4.8 mg/Kg were evaluated. The concentrations of the breakdown products of ISANA were quantified using LCMS methods.
Animals are acclimated to the oral gavage procedure for at least 3 days prior to the commencement of dose formulation administration. Deionized water is administered by oral gavage using a disposable catheter attached to a plastic syringe at a dose volume of 5 mL/kg. Animals are treated at approximately the same time on each dosing day. Dose formulations are administered by oral gavage using a disposable catheter attached to a plastic syringe. Following each daily dose, the gavage tube is rinsed with 6 mL of Ultra Pure water into the animal's stomach. Each animal will be dosed with a clean gavage tube on each dosing occasion. The dosing volume is 10 mL/kg. Each actual volume administered will be based on the most recent practical body weight of each animal. The dose formulations will be stirred continuously during dose administration.
Samples are mixed gently and placed on crushed wet ice until centrifugation, which are carried out as soon as practical. The samples are centrifuged for approximately 10 minutes in a refrigerated centrifuge (approximately 4° C.) at 2700 rpm. The resultant plasma are separated, transferred to uniquely labeled clear polypropylene tubes, and frozen immediately over dry ice and transferred to a freezer set to maintain −80° C. The plasma samples are transferred to the bioanalytical laboratory at the Testing Facility.
Plasma samples are analyzed for concentration of Aspirin, Salicylic Acid and Nicotinic Acid using a qualified analytical procedure. Analysis are performed by LC MS/MS under Analytical Procedure. Data collection is performed using Analyst from AB Sciex. […]

[3] = tested on: P-selectin; assay: Flow cytometry of platelet P-selectin during TCIPA induced by 59M cells; format: cell-based, human; settings: 300 μM
[4] = tested on: 59M cells; assay: Flow-mediated TCIPA using an ultrasound standing wave trap; format: cell-based, human; settings: 500 μM, 59M cell cluster
Description: The ultrasound trap had three essential features: a transducer (Ferroperm, Kvistgard, Denmark) in a housing of radial symmetry, an aqueous phase and a reflector that provided optical access from above. The trap was driven with a function generator (Hewlett Packard 33120A, UK). Microscopic observation occurred with a fast, high-resolution XM10 camera (Soft Imaging System, SIS, GmbH) mounted on an Olympus BX51M reflection epi-fluorescence microscope. Images were captured by a standard PC equipped with the Cell-D image acquisition software (Soft Imaging System, SIS, GmbH).
The experimental procedure was as follows: 59M cells were introduced into the trap, the acoustic field (2.13 MHz, 0.85 MPa) was initiated and cell clusters were allowed to form. Clusters remained levitated in suspension for 10 min. Washed platelets (2.5×10^8/ml) were introduced into the trap at a flow rate of 3 μl/min. Perfusion of washed platelets around the cluster proceeded following initial adhesion of platelets to the periphery of the cluster.
To study the effect of aspirin and aspirin prodrugs in TCIPA, washed platelets were pre-incubated for 10 min at room temperature with the inhibitors: aspirin, nicotinate, ISAS, ISMNA, ortho and meta (all at a concentration of 500 μM), prior to their introduction into the ultrasound trap. […] The cell cluster-platelet aggregate remained under microscopic observation for further 10 min (the upper time limit established in the current study) under continuous flow conditions. Further experiments were performed with ST0702 salicylate (500 μM).

SMILES | IC50 ([1]; Homo sapiens, Platelet) [µM] | IC50 [1] [µM] | effect of eserine on inhibition of collagen-induced aggregation in WP [1] | AUC ([2]; oral, Phase 2B text, Aspirin 4.2 mg/Kg dose) [ng·h/mL] | AUC ([2]; Phase 2A, Aspirin 4.2 mg/Kg oral) [ng·h/mL] | 59M-mediated increase in platelet surface P-selectin [3] | effect of ST0702 on collagen-induced aggregation in WP after PMSF pretreatment ([1]; PMSF 50 μM, 20 μM, not significant) | effect of ST0702 on collagen-induced aggregation in WP after PMSF pretreatment ([1]; PMSF 100 μM, ST0702 200 μM (200-300 μM elsewhere in the source), collagen 2 μg/ml) | inhibition of TCIPA under flow conditions (platelet-tumour cell disruption) [4]
CC(=O)Oc1ccccc1C(=O)O [Aspirin] | 35 | 34 | did not affect the inhibitory actions | 923 | 870 | failed to prevent |  |  | 
CC(=O)Oc1ccccc1C(=O)O[C@H]1CO[C@H]2[C@@H]1OC[C@H]2OC(=O)c1cccnc1 [ST0702, isosorbide-2-aspirinate-5-nicotinate] | 154 |  | not abolished |  |  | significantly (P<0.01, n=4) inhibited | slightly attenuated | significantly attenuated; also recorded: abolished | significantly arrested TCIPA; also recorded: effectively inhibit
